Reference: ChEMBL document CHEMBL1141160, “Structure-based optimization of phenylbutyrate-derived histone deacetylase inhibitors” (J Med Chem, 2005)

Assays:
[1] = system: DU-145; experiment: cells; details: Homo sapiens, DU-145, 96 h
Description: Inhibitory concentration against DU-145 prostate cancer cell proliferation over 96 hr

[2] = molecular target: Histone deacetylase; details: prostate
Description: In vitro inhibitory concentration against histone deacetylase of DU-145 prostate cell nuclear extract as deacetylation of biotinylated [3H]-acetyl histone H4 peptide

Question: For `CC(C)[C@H](C(=O)Nc1ccc(C(=O)NO)cc1)c1ccccc1` [AR-42], which IC50 [1] is on record?
Answer: 110 nM

Question: With `O=C(CCCc1ccccc1)NCc1ccc(C(=O)NO)cc1` as the compound, how does the IC50 [2] read?
Answer: 530 nM

Question: Which IC50 [2] does the source give for `CC(C)(CCc1ccccc1)C(=O)Nc1ccc(C(=O)NO)cc1` here?
Answer: 25 nM

Question: Which IC50 [1] does the source give for `CC(C)[C@@H](C(=O)Nc1ccc(C(=O)NO)cc1)c1ccccc1` here?
Answer: 820 nM

Question: Which IC50 [2] does the source give for `CC[C@H](C(=O)Nc1ccc(C(=O)NO)cc1)c1ccccc1` here?
Answer: 34 nM

Question: `CC(C)(C(=O)Nc1ccc(C(=O)NO)cc1)c1ccccc1` was tested. Which IC50 [2] did it give?
Answer: 98 nM

Question: How did the IC50 [2] turn out when `CN(C(=O)CCCc1ccccc1)c1ccc(C(=O)NO)cc1` was run?
Answer: 520 nM

Question: Which IC50 [2] does the source give for `O=C(CCc1ccc(NC(=O)CCCc2ccccc2)cc1)NO` here?
Answer: 1200 nM

Question: How did the IC50 [2] turn out when `CC[C@@H](C(=O)Nc1ccc(C(=O)NO)cc1)c1ccccc1` was run?
Answer: 68 nM

Question: How did the IC50 [2] turn out when `O=C(CCCCc1ccccc1)Nc1ccc(C(=O)NO)cc1` was run?
Answer: 250 nM

Question: With `O=C(Cc1ccccc1)Nc1ccc(C(=O)NO)cc1` as the compound, how does the IC50 [2] read?
Answer: 157 nM

Question: How did the IC50 [2] turn out when `CCC(C(=O)Nc1ccc(C(=O)NO)cc1)c1ccccc1` (racemic) was run?
Answer: 54 nM

Question: `O=C(NO)c1ccc(NC(=O)c2ccccc2)cc1` was tested. Which IC50 [2] did it give?
Answer: 210 nM
